{"source": "patent US10112899B2", "about": "(ViiV HEALTHCARE UK LIMITED, priority 2014, dated 2018)", "data": [{"system": "HIV in the HTLV-1 transformed cell line MT-4", "assay": "organism not typed", "format": "cell-based", "details": "MT4, 96 h, MT-4 cells; luciferase/cell titer glo readout after 96 hours; 10 point dose response", "units": {"IC50": "µM"}, "values": [{"smiles": "Cc1ccc(-c2c(C)c3c(c(C)c2[C@H](OC(C)(C)C)C(=O)O)CN(C(=O)N2CCC(C)(C)CC2)C3)cc1", "note": "[Example 84, (S)-2-(tert-butoxy)-2-(2-(4,4-dimethylpiperidine-1-carbonyl)-4,7-dimethyl-6-(p-tolyl)isoindolin-5-yl)acetic acid]", "IC50": 0.011}, {"smiles": "CC(=O)N1CCN(C(=O)N2Cc3c(C)c(-c4ccc(C)cc4)c([C@H](OC(C)(C)C)C(=O)O)c(C)c3C2)CC1", "note": "[Example 85, (S)-2-(2-(4-acetylpiperazine-1-carbonyl)-4,7-dimethyl-6-(p-tolyl)isoindolin-5-yl)-2-(tert-butoxy)acetic acid]", "IC50": 0.12}, {"smiles": "Cc1ccc(-c2c(C)c3c(c(C)c2[C@H](OC(C)(C)C)C(=O)O)CN(C(=O)N2CCNCC2)C3)cc1", "note": "[Example 86, (S)-2-(tert-butoxy)-2-(4,7-dimethyl-2-(piperazine-1-carbonyl)-6-(p-tolyl)isoindolin-5-yl)acetic acid]", "IC50": 1.16}, {"smiles": "Cc1ccc(-c2c(C)c3c(c(C)c2[C@H](OC(C)(C)C)C(=O)O)CN(C(=O)N2CCC[C@@H]2C)C3)cc1", "note": "[Example 87, (S)-2-(tert-butoxy)-2-(4,7-dimethyl-2-((S)-2-methylpyrrolidine-1-carbonyl)-6-(p-tolyl)isoindolin-5-yl)acetic acid]", "IC50": 0.005}, {"smiles": "Cc1ccc(-c2c(C)c3c(c(C)c2[C@H](OC(C)(C)C)C(=O)O)CN(C(=O)N2C[C@H](C)OC[C@H]2C)C3)cc1", "note": "[Example 88, (S)-2-(tert-butoxy)-2-(2-((2S,5R)-2,5-dimethylmorpholine-4-carbonyl)-4,7-dimethyl-6-(p-tolyl)isoindolin-5-yl)acetic acid]", "IC50": 0.018}, {"smiles": "Cc1ccc(-c2c(C)c3c(c(C)c2[C@H](OC(C)(C)C)C(=O)O)CN(C(=O)N2CCC(F)CC2)C3)cc1", "note": "[Example 89, (S)-2-(tert-butoxy)-2-(2-(4-fluoropiperidine-1-carbonyl)-4,7-dimethyl-6-(p-tolyl)isoindolin-5-yl)acetic acid]", "IC50": 0.011}, {"smiles": "Cc1ccc(-c2c(C)c3c(c(C)c2[C@H](OC(C)(C)C)C(=O)O)CN(C(=O)N2CCN(C)C(=O)C2)C3)cc1", "note": "[Example 90, (S)-2-(tert-butoxy)-2-(4,7-dimethyl-2-(4-methyl-3-oxopiperazine-1-carbonyl)-6-(p-tolyl)isoindolin-5-yl)acetic acid]", "IC50": 0.267}, {"smiles": "Cc1ccc(-c2c(C)c3c(c(C)c2[C@H](OC(C)(C)C)C(=O)O)CN(C(=O)N2CCOC[C@@H]2C)C3)cc1", "note": "[Example 91, (S)-2-(tert-butoxy)-2-(4,7-dimethyl-2-((S)-3-methylmorpholine-4-carbonyl)-6-(p-tolyl)isoindolin-5-yl)acetic acid]", "IC50": 0.013}, {"smiles": "Cc1ccc(-c2c(C)c3c(c(C)c2[C@H](OC(C)(C)C)C(=O)O)CN(C(=O)N2CCC(F)(F)CC2)C3)cc1", "note": "[Example 92, (S)-2-(tert-butoxy)-2-(2-(4,4-difluoropiperidine-1-carbonyl)-4,7-dimethyl-6-(p-tolyl)isoindolin-5-yl)acetic acid]", "IC50": 0.016}, {"smiles": "Cc1ccc(-c2c(C)c3c(c(C)c2[C@H](OC(C)(C)C)C(=O)O)CN(C(=O)N2CCCC(C)(C)C2)C3)cc1", "note": "[Example 93, (S)-2-(tert-butoxy)-2-(2-(3,3-dimethylpiperidine-1-carbonyl)-4,7-dimethyl-6-(p-tolyl)isoindolin-5-yl)acetic acid]", "IC50": 0.007}, {"smiles": "Cc1ccc(-c2c(C)c3c(c(C)c2[C@H](OC(C)(C)C)C(=O)O)CN(C(=O)NCC(F)(F)F)C3)cc1", "note": "[Example 94, (S)-2-(tert-butoxy)-2-(4,7-dimethyl-6-(p-tolyl)-2-((2,2,2-trifluoroethyl)carbamoyl)isoindolin-5-yl)acetic acid]", "IC50": 0.044}, {"smiles": "Cc1ccc(-c2c(C)c3c(c(C)c2[C@H](OC(C)(C)C)C(=O)O)CN(C(=O)N2CCC(Cc4ccccc4)CC2)C3)cc1", "note": "[Example 95, (S)-2-(2-(4-benzylpiperidine-1-carbonyl)-4,7-dimethyl-6-(p-tolyl)isoindolin-5-yl)-2-(tert-butoxy)acetic acid]", "IC50": 0.778}, {"smiles": "Cc1ccc(-c2c(C)c3c(c(C)c2[C@H](OC(C)(C)C)C(=O)O)CN(C(=O)N2CC[C@@H](F)C2)C3)cc1", "note": "[Example 96, (S)-2-(tert-butoxy)-2-(2-((R)-3-fluoropyrrolidine-1-carbonyl)-4,7-dimethyl-6-(p-tolyl)isoindolin-5-yl)acetic acid]", "IC50": 0.014}, {"smiles": "Cc1ccc(-c2c(C)c3c(c(C)c2[C@H](OC(C)(C)C)C(=O)O)CN(C(=O)NC(C)(C)c2ccccc2)C3)cc1", "note": "[Example 97, (S)-2-(tert-butoxy)-2-(4,7-dimethyl-2-((2-phenylpropan-2-yl)carbamoyl)-6-(p-tolyl)isoindolin-5-yl)acetic acid]", "IC50": 0.144}, {"smiles": "Cc1ccc(-c2c(C)c3c(c(C)c2[C@H](OC(C)(C)C)C(=O)O)CN(C(=O)N2CCC(N4CCOCC4)CC2)C3)cc1", "note": "[Example 98, (S)-2-(tert-butoxy)-2-(4,7-dimethyl-2-(4-morpholinopiperidine-1-carbonyl)-6-(p-tolyl)isoindolin-5-yl)acetic acid]", "IC50": 2.3}, {"smiles": "Cc1ccc(-c2c(C)c3c(c(C)c2[C@H](OC(C)(C)C)C(=O)O)CN(C(=O)N[C@@H](C)C2CCCCC2)C3)cc1", "note": "[Example 99, (S)-2-(tert-butoxy)-2-(2-(((S)-1-cyclohexylethyl)carbamoyl)-4,7-dimethyl-6-(p-tolyl)isoindolin-5-yl)acetic acid]", "IC50": 0.045}, {"smiles": "Cc1ccc(-c2c(C)c3c(c(C)c2[C@H](OC(C)(C)C)C(=O)O)CN(C(=O)c2cccc4c2OCCO4)C3)cc1", "note": "[Example 105, (S)-2-(tert-butoxy)-2-(2-(2,3-dihydrobenzo[b][1,4]dioxine-5-carbonyl)-4,7-dimethyl-6-(p-tolyl)isoindolin-5-yl)acetic acid]", "IC50": 0.014}, {"smiles": "Cc1ccc(-c2c(C)c3c(c(C)c2[C@H](OC(C)(C)C)C(=O)O)CN(C(=O)CN2CCCCC2)C3)cc1", "note": "[Example 106, (S)-2-(tert-butoxy)-2-(4,7-dimethyl-2-(2-(piperidin-1-yl)acetyl)-6-(p-tolyl)isoindolin-5-yl)acetic acid]", "IC50": 0.143}, {"smiles": "Cc1ccc(-c2c(C)c3c(c(C)c2[C@H](OC(C)(C)C)C(=O)O)CN(C(=O)C2CCCCC2)C3)cc1", "note": "[Example 107, (S)-2-(tert-butoxy)-2-(2-(cyclohexanecarbonyl)-4,7-dimethyl-6-(p-tolyl)isoindolin-5-yl)acetic acid]", "IC50": 0.007}, {"smiles": "Cc1ccc(-c2c(C)c3c(c(C)c2[C@H](OC(C)(C)C)C(=O)O)CN(C(=O)C(C)(C)C)C3)cc1", "note": "[Example 109, (S)-2-(tert-butoxy)-2-(4,7-dimethyl-2-pivaloyl-6-(p-tolyl)isoindolin-5-yl)acetic acid]", "IC50": 0.036}, {"smiles": "Cc1ccc(-c2c(C)c3c(c(C)c2[C@H](OC(C)(C)C)C(=O)O)CN(C(=O)CC(C)(C)C)C3)cc1", "note": "[Example 110, (S)-2-(tert-butoxy)-2-(2-(3,3-dimethylbutanoyl)-4,7-dimethyl-6-(p-tolyl)isoindolin-5-yl)acetic acid]", "IC50": 0.006}, {"smiles": "Cc1ccc(-c2c(C)c3c(c(C)c2[C@H](OC(C)(C)C)C(=O)O)CN(C(=O)C2CCC(F)(F)CC2)C3)cc1", "note": "[Example 111, (S)-2-(tert-butoxy)-2-(2-(4,4-difluorocyclohexanecarbonyl)-4,7-dimethyl-6-(p-tolyl)isoindolin-5-yl)acetic acid]", "IC50": 0.016}, {"smiles": "Cc1ccc(-c2c(C)c3c(c(C)c2[C@H](OC(C)(C)C)C(=O)O)CN(C(=O)C2CCCC2)C3)cc1", "note": "[Example 112, (S)-2-(tert-butoxy)-2-(2-(cyclopentanecarbonyl)-4,7-dimethyl-6-(p-tolyl)isoindolin-5-yl)acetic acid]", "IC50": 0.029}, {"smiles": "Cc1ccc(-c2c(C)c3c(c(C)c2[C@H](OC(C)(C)C)C(=O)O)CN(C(=O)C2CCC(F)(F)C2)C3)cc1", "note": "(stereo partly drawn) [Example 113, (2S)-2-(tert-butoxy)-2-(2-(3,3-difluorocyclopentanecarbonyl)-4,7-dimethyl-6-(p-tolyl)isoindolin-5-yl)acetic acid]", "IC50": 0.01}, {"smiles": "COc1cccc(C(=O)N2Cc3c(C)c(-c4ccc(C)cc4)c([C@H](OC(C)(C)C)C(=O)O)c(C)c3C2)c1", "note": "[Example 114, (S)-2-(tert-butoxy)-2-(2-(3-methoxybenzoyl)-4,7-dimethyl-6-(p-tolyl)isoindolin-5-yl)acetic acid]", "IC50": 0.005}, {"smiles": "Cc1ccc(-c2c(C)c3c(c(C)c2[C@H](OC(C)(C)C)C(=O)O)CN(C(=O)c2ccc(C)c(F)c2)C3)cc1", "note": "[Example 115, (S)-2-(tert-butoxy)-2-(2-(3-fluoro-4-methylbenzoyl)-4,7-dimethyl-6-(p-tolyl)isoindolin-5-yl)acetic acid]", "IC50": 0.006}, {"smiles": "COC1CCC(C(=O)N2Cc3c(C)c(-c4ccc(C)cc4)c([C@H](OC(C)(C)C)C(=O)O)c(C)c3C2)CC1", "note": "(stereo partly drawn) [Example 116, (S)-2-(tert-butoxy)-2-(2-(4-methoxycyclohexanecarbonyl)-4,7-dimethyl-6-(p-tolyl)isoindolin-5-yl)acetic acid]", "IC50": 0.031}, {"smiles": "Cc1ccc(-c2c(C)c3c(c(C)c2[C@H](OC(C)(C)C)C(=O)O)CN(C(=O)CC2CCCCC2)C3)cc1", "note": "[Example 117, (S)-2-(tert-butoxy)-2-(2-(2-cyclohexylacetyl)-4,7-dimethyl-6-(p-tolyl)isoindolin-5-yl)acetic acid]", "IC50": 0.017}, {"smiles": "Cc1ccc(-c2c(C)c3c(c(C)c2[C@H](OC(C)(C)C)C(=O)O)CN(C(=O)C2CC4(CCC4)C2)C3)cc1", "note": "[Example 118, (S)-2-(tert-butoxy)-2-(4,7-dimethyl-2-(spiro[3.3]heptane-2-carbonyl)-6-(p-tolyl)isoindolin-5-yl)acetic acid]", "IC50": 0.014}, {"smiles": "Cc1ccc(-c2c(C)c3c(c(C)c2[C@H](OC(C)(C)C)C(=O)O)CN(C(=O)c2cc(F)cc(F)c2)C3)cc1", "note": "[Example 119, (S)-2-(tert-butoxy)-2-(2-(3,5-difluorobenzoyl)-4,7-dimethyl-6-(p-tolyl)isoindolin-5-yl)acetic acid]", "IC50": 0.003}, {"smiles": "Cc1ccc(-c2c(C)c3c(c(C)c2[C@H](OC(C)(C)C)C(=O)O)CN(C(=O)c2cccc(F)c2F)C3)cc1", "note": "[Example 120, (S)-2-(tert-butoxy)-2-(2-(2,3-difluorobenzoyl)-4,7-dimethyl-6-(p-tolyl)isoindolin-5-yl)acetic acid]", "IC50": 0.003}]}]}
